In patent US6281196A, “Isolation and structural elucidation of the human cancer cell growth inhibitory compound denominated agelagalastatin” (Arizona Board of Regents, priority 2000, dated 2001):
Values after ≈ are worked out from the molar mass of the structure shown.

Experiments:
[1] = system: human cancer cell lines (brain SF-295, renal A498, colon KM20L2, melanoma SK-MEL-5, lung NCI-H460, ovarian OVCAR-3); assay: in vitro activity against minipanel of human cancer cell lines; format: cell-based; settings: portion of minipanel including brain SF-295, renal A498, colon KM20L2 and melanoma SK-MEL-5
Text: (§1) The current cost to develop the necessary data required for lawful marketing of a new drug compound approaches ten million dollars per compound. Economics dictate that such a huge investment be made only when there is a reasonable likelihood that it can be recovered. Absent such a likelihood, there will be no investment and, without investment, the research requisite for the discovery of these potentially life saving compounds will cease. Current research in the control of cancer in the United States is coordinated by the National Cancer Institute (NCI). To determine whether a substance has anti-cancer properties, the NCI has established a systematic protocol. This protocol, which involves the testing of a substance against a standard cell line panel containing 60 human tumor cell lines, has been verified and is accepted in scientific circles. The protocol, and the established statistical means for analyzing the results obtained by the standardized testing are fully described in the literature. […]
(§2) Each drug is tested at five (5) doses: 100-10-1-0.1-0.01 μg/ml. Percent Growths are calculated for each dose. […]

lung NCI-H460 = assay: human cancer cell line growth inhibition, lung NCI-H460; format: cell-based; settings: drug dose needed to reduce the percent growth to 50%
Text: as §1, §2

ovary OVCAR-3 = assay: human cancer cell line growth inhibition, ovary OVCAR-3; format: cell-based; settings: drug dose needed to reduce the percent growth to 50%
Text: as §1, §2

L1210 leukemia cell line = settings: cited from earlier work
murine melanoma B16 = settings: cited from earlier work

With `CCCCCCCCCCCCCCCCCCCCCC[C@@H](O)C(=O)N[C@@H](CO[C@H]1O[C@H](CO)[C@H](O)[C@H](O[C@@H]2O[C@@H]([C@@H](O)CO)[C@H](O)[C@H]2O[C@H]2O[C@@H]([C@@H](O)CO)[C@H](O)[C@H]2O)[C@H]1O)[C@H](O)[C@H](O)CCCCCCCCCCC(C)C` [agelagalastatin] the in vitro activity [1] was “significant in vitro activity”, the GI50 (lung NCI-H460) was 0.77 µg/mL (≈ 0.666 µM) and the GI50 (ovary OVCAR-3) was 2.8 µg/mL (≈ 2.42 µM).

In the case of `CN1C(=O)NC2C3NC(=O)c4ccc(Br)n4C3CC21O` (centres unmarked) [agelastatin A], the cytotoxic (L1210 leukemia cell line) is listed as “cytotoxic”.

In the case of `CCCCCCCCCCCCCCCCCCCCCCCCCC(=O)N[C@@H](CO[C@H]1O[C@H](CO)[C@H](O)[C@H](O)[C@H]1O)[C@H](O)[C@H](O)CCCCCCCCCCCCCC` [structural modification (5)], the in vivo active (murine melanoma B16) is listed as “in vivo active”.
